# Assay results taken from the Deep4Chem optical property database.
# “And” between values parts separate entries of the source, which are not always exact repeats. Identical values can stand only once.
# Experiment: solvent given as SMILES
compound,measurement,setting,value
COc1ccc(/N=N/c2c(O)c3ccccc3n(C)c2=O)c(S(=O)(=O)O)c1,absorption maximum,in C1CCOC1,449 nm
same,absorption maximum,in CC(C)=O,451 nm
same,absorption maximum,in CCOC(C)=O,446 nm
same,absorption maximum,in CO,448 nm
same,absorption maximum,in CS(C)=O,447 nm
same,absorption maximum,in Cc1ccccc1,449 nm
same,absorption maximum,in ClCCl,451 nm
same,absorption maximum,in O,447 nm
O=[N+]([O-])c1cc(/N=N/c2cc3c4c(c2)CCCN4CCC3)cc([N+](=O)[O-])c1,absorption maximum,in CCOC(C)=O,513 nm
CCCSC1=[N+]2C(=C(c3ccccc3)c3ccc(SCCC)n3[B-]2(F)F)C=C1SC#N,absorption maximum,in CC#N,536 nm
same,absorption maximum,in CCCCCC,556 nm
same,absorption maximum,in CCOC(C)=O,545 nm
same,absorption maximum,in CO,536 nm
same,absorption maximum,in ClCCl,545 nm
CCCCCCCCN1C(=O)c2ccc3c4c(-c5ccc6c(c5)c5ccccc5n6-c5ccccc5)cc5c6c(cc(-c7ccc8c(c7)c7ccccc7n8-c7ccccc7)c(c7ccc(c2c37)C1=O)c64)C(=O)N(CCCCCCCC)C5=O,absorption maximum,in ClC(Cl)Cl,563 nm
O=[N+]([O-])c1ccc([N+]2=CC3=C(O[B-]2(F)F)c2ccccc2SC3)cc1,absorption maximum,in ClCCl,440 nm
Cn1c(=O)c(/N=N/c2ccc(Nc3ccccc3)c(S(=O)(=O)O)c2)c(O)c2ccccc21,absorption maximum,in C1CCOC1,412 nm
same,absorption maximum,in CC(C)=O,407 nm
same,absorption maximum,in CCOC(C)=O,411 nm
same,absorption maximum,in CO,400 nm
same,absorption maximum,in CS(C)=O,396 nm
same,absorption maximum,in Cc1ccccc1,414 nm
same,absorption maximum,in ClCCl,415 nm
same,absorption maximum,in O,385 nm
c1ccc(-c2nc(-c3ccc(-c4nc(-c5ccccc5)c(-c5ccccc5)[nH]4)s3)[nH]c2-c2ccccc2)cc1,absorption maximum,in C1CCOC1,386 nm
same,absorption maximum,in CC#N,385 nm
same,absorption maximum,in CC(=O)O,392 nm
same,absorption maximum,in CC(C)=O,384 nm and 385 nm
same,absorption maximum,in CCOC(C)=O,385 nm
same,absorption maximum,in CCOCC,384 nm
same,absorption maximum,in CO,382 nm
same,absorption maximum,in ClC(Cl)Cl,395 nm and 394.99 nm
Nc1ccc2cc3ccccc3cc2c1,absorption maximum,in C1CCCCC1,397.61 nm
CCCCc1ccc(-n2c3c(c4c2c2c(n4-c4ccc(CCCC)cc4)-c4cc(F)ccc4NB2c2ccccc2)B(c2ccccc2)Nc2ccc(F)cc2-3)cc1,absorption maximum,in Cc1ccccc1,395 nm
O=S1(=O)C(c2ccsc2)=C(c2ccsc2)c2ccccc21,absorption maximum,in C1CCOC1,350 nm
COc1ccc(N(c2ccc(OC)cc2)c2ccc(-c3ccc(C=C(C#N)C#N)cc3)cc2)cc1,absorption maximum,in ClC(Cl)Cl,483 nm
CC1=c2cc3c(C)c4n(c3cc2=[N+]2C1=Cc1c3ccccc3c(C)n1[B-]2(F)F)[B-](F)(F)[N+]1=C(C)c2ccccc2C1=C4,absorption maximum,in ClC(Cl)Cl,775 nm
C[Si](C)(C)C#C[Si](c1c2ccccc2cc2ccccc12)(c1c2ccccc2cc2ccccc12)c1c2ccccc2cc2ccccc12,absorption maximum,in ClC(Cl)Cl,404 nm
N#C/C(=C\c1ccc([N+](=O)[O-])cc1)c1nc(-c2ccccc2)cs1,absorption maximum,in CC#N,382 nm
COc1cc(-c2ncc(-c3ccncc3)o2)cc(OC)c1OC,absorption maximum,in ClCCl,326 nm
CC1(C)c2ccccc2-c2cc3c4ccccc4n(-c4ccc(-c5nc(-c6ccccc6)nc(-c6ccccc6)n5)cc4)c3cc21,absorption maximum,in Cc1ccccc1,362 nm
C1=Nc2cccc3cccc(c23)N1,absorption maximum,in CC#N,329 nm
same,absorption maximum,in CO,329 nm
same,absorption maximum,in CS(C)=O,333 nm
same,absorption maximum,in Cc1ccccc1,331 nm
CCOC(=O)/N=c1/oc2ccc(OC)cc2cc1C#N,absorption maximum,in ClCCl,388 nm
c1cc2ccc1-c1ccc(cc1)-c1ccc(s1)-c1ccc(cc1)-c1ccc(cc1)-c1ccc(s1)-c1ccc(cc1)-c1ccc(cc1)-c1ccc(s1)-c1ccc(cc1)-c1ccc(cc1)-c1ccc-2s1,absorption maximum,in C1CCOC1,354 nm
CCN(CC)c1ccc2c(-c3ccccc3C(=O)O)c3c([o+]c2c1)/C(=C/c1ccc(N(C)C)cc1)CCC3,absorption maximum,in ClCCl,689 nm
c1ccc(-c2nc3c4ccccc4c4ccccc4c3n2-c2ccccc2)cc1,absorption maximum,in C1CCOC1,362 nm
O=[N+]([O-])c1ccc([N+]2=Cc3ccc4c5c(ccc4c3O[B-]2(c2ccccc2)c2ccccc2)C=[N+](c2ccc([N+](=O)[O-])cc2)[B-](c2ccccc2)(c2ccccc2)O5)cc1,absorption maximum,in Cc1ccccc1,536 nm
same,absorption maximum,in ClCCl,541 nm
Cc1c2c(nc3ccccc13)-c1cc3c(cc1CC2)-c1nc2ccccc2c(C)c1CC3,absorption maximum,in ClC(Cl)Cl,372 nm
Cc1nc2c(ccc3c2sc(/C=C/c2ccc(N(C)C)cc2)[n+]3C)s1,absorption maximum,in CO,534 nm
same,absorption maximum,in ClC(Cl)Cl,557 nm
O=C1CCCC2=C1C(c1cccc(Cl)c1)c1c(c3ccccc3oc1=O)N2 (stereo not drawn),absorption maximum,in CS(C)=O,373 nm
O=C(c1ccc2c3c(cccc13)-c1cccc3c1C2CC=C3)c1c(Cc2ccccc2)c2ccc3cccc4c5cccc6ccc1c(c65)c2c34 (stereo not drawn),absorption maximum,in ClCCl,467 nm
CCOC(=O)c1sc2nc3c(c(C#N)c2c1N)CCCCCC3,absorption maximum,in c1ccccc1,410 nm
O=C1c2ccccc2C2=Nc3cccc4cccc(c34)N12,absorption maximum,in ClCCl,448 nm
COc1cc2c(cc1F)c(=O)c1cc(F)c(OC)cc1n2Cc1ccccc1,absorption maximum,in CCO,381 nm
CN(C)c1ccc(C#Cc2ccc(-c3nc(C#N)c(C#N)n3C)cc2)cc1,absorption maximum,in C1CCCCC1,372 nm
same,absorption maximum,in CC#N,357 nm
same,absorption maximum,in CO,356 nm
same,absorption maximum,in ClC(Cl)Cl,369 nm
CC1(C)c2ccccc2N(c2cc[n+]3c(c2)-c2ccccc2O[B-]3(F)F)c2ccccc21,absorption maximum,in Cc1ccccc1,358 nm
CC(C)(C)c1ccc(-c2nc3c4ccccc4c4ccccc4c3n2-c2ccc(C(C)(C)C)cc2)cc1,absorption maximum,in C1CCOC1,314 nm
same,absorption maximum,in C1COCCO1,315 nm
same,absorption maximum,in CC#N,310 nm
same,absorption maximum,in CCCCCC,315 nm
same,absorption maximum,in CCCCOCCCC,315 nm
same,absorption maximum,in CCN(CC)CC,316 nm
same,absorption maximum,in CCOC(C)=O,313 nm
same,absorption maximum,in CCOCC,313 nm
same,absorption maximum,in CN(C)C=O,313 nm
same,absorption maximum,in Cc1ccccc1,316 nm
same,absorption maximum,in ClC=C(Cl)Cl,316 nm
same,absorption maximum,in ClCCl,313 nm
CCCCCCCCCCCCOc1cc(C(=O)Nc2ccc(-c3ccc4c(c3)C(=O)c3cc(-c5ccc(NC(=O)c6cc(OCCCCCCCCCCCC)c(OCCCCCCCCCCCC)c(OCCCCCCCCCCCC)c6)cc5)ccc3-4)cc2)cc(OCCCCCCCCCCCC)c1OCCCCCCCCCCCC,absorption maximum,in C1CCOC1,447 nm
CCN(CC)c1ccc2c(c1)oc(=O)c1cc3c(-c4ccccc4)nn(C)c3nc12,absorption maximum,in ClCCl,350 nm
F[B-]1(F)n2c(c(-c3ccccc3)c(-c3cccs3)c2-c2ccccc2)N=C2C(c3ccccc3)=C(c3cccs3)C(c3ccccc3)=[N+]21,absorption maximum,in ClCCl,650 nm
CCCCc1cc(-c2cccc(COC)c2)oc1-c1cccc(-c2oc(-c3cccc(COC)c3)cc2CCCC)c1,absorption maximum,in ClC(Cl)Cl,334 nm
c1ccc(-c2nc(-c3ccccc3)nc(-c3ccc(-n4c5ccccc5c5cc6c(cc54)C4c5ccccc5C6c5ccccc54)cc3)n2)cc1,absorption maximum,in Cc1ccccc1,373 nm
COc1ccc(/C=C/C=C/C2=NC3C(=O)NC(N)=NC3N2[C@H]2C[C@H](O)[C@@H](CO)O2)cc1 (stereo partly drawn),absorption maximum,in C1COCCO1,354 nm
same,absorption maximum,in CC#N,352 nm
same,absorption maximum,in CO,342 nm
COC1(OC)C2(Cl)c3nc4cc(-c5cccs5)ccc4nc3C1(Cl)C1C[C@H]3[C@@H](CC12)C1(Cl)c2nc4cc(-c5cccs5)ccc4nc2C3(Cl)C1(OC)OC (stereo partly drawn),absorption maximum,in CC#N,366 nm
same,absorption maximum,in CCCCCC,358 nm
same,absorption maximum,in CCOC(C)=O,362 nm
same,absorption maximum,in CO,369 nm
same,absorption maximum,in Cc1ccccc1,364 nm
same,absorption maximum,in ClC(Cl)Cl,368 nm
same,absorption maximum,in ClCCl,369 nm
CCOC(=O)c1cc(C(=O)OCC)c2ccccc2n1,absorption maximum,in CCO,319 nm
Oc1ccc2ccccc2c1/C=N/C1CCCCC1/N=C/c1c(O)ccc2ccccc12 (stereo not drawn),absorption maximum,in CC#N,397 nm
